Values of other authors as cited in article PMC12394912 (RSC Chemical Biology, 2025).

Cc1ncsc1-c1ccc(CNC(=O)[C@@H]2C[C@@H](O)CN2C(=O)[C@@H](NC(=O)COCCOCCOCCNC(=O)C[C@@H]2N=C(c3ccc(Cl)cc3)c3c(sc(C)c3C)-n3c(C)nnc32)C(C)(C)C)cc1 [MZ1]
PAMPA permeability, fold lower than E3 ligand VH032: ~290 fold
PAMPA permeability, fold lower than POI ligand JQ1: approximately 190 fold
